One assay concerns the target BRAF V600E (Homo sapiens (Human), UniProt P15056, V600E). Description: Inhibitory activity against kinase BRAF V600E, Z'-LYTE method (Invitrogen). It is filed as biochemical. To be noted: for inhibition at 1 µM: 1 μM compound, read-out: Inhibition (% inhibition at 1 μM) against BRAF V600E. The method, boiled down:
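FRET-based Z′-LYTE peptide-phosphorylation assay in 50 mM HEPES pH 7.5, 0.01% BRIJ-35, 10 mM MgCl2, 1 mM EGTA; kinase reaction 60 min at room temperature, then 60 min development before fluorescence read. IC50 from concentration vs % inhibition; single-point % inhibition tested at 1 μM.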

For a further assay, the system named is Colo205 cells. Description: Inhibition of cancer cell growth, MTT or MTS assay, Colo205. The format is cell-based. To be noted: Homo sapiens, COLO 205; 72 h incubation. As for the experimental part: Inhibition of cell growth by compounds was measured using MTT or MTS assay. Tumor cell lines were purchased from ATCC (American Type Culture Collection, Manassas, Va.). All cell lines were maintained in RPMI 1640 (Hyclone) supplemented with 10% fetal bovine serum (FBS, Hyclone), glutamine (2 mM, Hyclone), and antibiotics (penicillin 100 U/mL and streptomycin 50 μg/mL) at 37° C. in a humidified atmosphere of 5% CO2 in air. Taxol (as a positive control, Sigma) and compounds were dissolved in DMSO (Sigma), and the final concentration of DMSO in the medium was 1%. Tumor cells were plated in 96-well plates at densities of about 2000 (A375) or 4000 (A549 and Colo205) cells/well of a 96-well plate and allowed to adhere/grow for 24 h. They were then treated with various concentrations of drug and incubated for 72 h. For MTT method, medium was then removed by inverting and tapping the plates. 100 μL of MTT (0.5 mg/ml) was added to each well followed by an incubated at 37° C. for 4 h. MTT was then removed and 200 μL of DMSO was added to each well, and the ODs at 570 nm were measured after a 5 second shaking cycle in a 96-well spectrophotometer. For MTS method, 20 μL MTS (CellTiter 96 Aqueous One Solution, Promega) was added to each well followed by an incubated at 37° C. for 2-4 h, solutions were then directly put in a 96-well spectrophotometer, and the ODs at 490 nm were measured.
All concentrations of compounds were tested in triplicate and controls were averaged over 4 wells. IC50 was calculated by plotting the concentration of compound vs the percentage of inhibition in treated wells using GraphPad Prism 5. […] The scale utilized in Tables […] is as follows: +++ less than 1000 nM; ++ between 1000 nM and 5000 nM; and + greater than 5000 nM. The scale utilized in Table 8 is as follows: +++ less than 2000 nM; ++ between 2000 nM and 5000 nM; and + greater than 5000 nM.

Another assay relates to A375 cells. The assay can be described thus: Inhibition of cancer cell growth, MTT or MTS assay, A375. The format is cell-based. The following applies: Homo sapiens, A-375; 72 h incubation. The method in brief:
(§1)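 Cells in RPMI 1640 with 10% FBS were seeded at ~2000 (A375) or 4000 (A549, Colo205) per well, grown 24 h, then exposed to compound 72 h at 1% final DMSO. Read-out by MTT (570 nm) or MTS (490 nm). IC50 from concentration vs percent inhibition, triplicates.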
A general note: Tetrazolium dyes change colour on reduction, which living cells bring about.

For the next assay, the target named is KDR (VEGFR2) (Homo sapiens (Human), UniProt P35968). The assay can be described thus: Inhibitory activity against kinase KDR, Z'-LYTE method (Invitrogen). The following applies: for inhibition at 1 µM: 1 μM compound, read-out: Inhibition (% inhibition at 1 μM) against KDR. The format is biochemical. The method in brief: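 Human KDR (VEGFR2) kinase inhibition was measured with Invitrogen's Z′-LYTE® method. A 2× mixture of KDR and Tyr 01 peptide is made in 50 mM HEPES pH 7.5, 0.01% BRIJ-35, 10 mM MgCl2, 1 mM EGTA. Each 10 μL reaction holds 0.5-11.7 ng enzyme and 2 μM Tyr 01. It incubates for 1 hour, then 5 μL of Development Reagent B diluted 1:256 is added.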

For another assay, the system named is A549 cells. The assay can be described thus: Inhibition of cancer cell growth, MTT or MTS assay, A549. It is filed as cell-based. To be noted: Homo sapiens, 72 h incubation. The method, boiled down: as §1
The target in another assay is BRAF (Homo sapiens (Human), UniProt P15056). Description: Inhibitory activity against kinase BRAF, Z'-LYTE method (Invitrogen). The format is biochemical. To be noted: 1 μM compound. The method, boiled down:
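Z′-LYTE FRET kinase assay in 50 mM HEPES pH 7.5, 10 mM MgCl2, 1 mM EGTA, 0.01% Brij-35, with a 60 min RT kinase reaction, then 60 min development. IC50 was taken from % inhibition versus concentration. Values may be given as % inhibition at 1 μM.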

The subject of a further assay is Colo205 tumor xenograft. The assay can be described thus: Inhibition of tumor growth in Colo205 tumor xenograft model. It is filed as in vivo, BALB/c female nude mice. To be noted: 30 mg/kg, qd × 14, i.p.; for Tumor Volume Post-treatment: after treatment; for Tumor Volume Pre-treatment: before treatment. As for the experimental part: Cells were implanted in BALB/c female nude mice and grown as tumor xenografts. When tumors achieved 120-200 mm^3, mice were assigned into treatment and control groups using randomized block design based upon their tumor volumes. Each group contained 6 tumor-bearing mice. Tumors were measured twice weekly in two dimensions using a caliper, and the tumor volume was calculated from two-dimensional measurements using the equation V=0.5×a×b^2 where a and b are the long and short diameters of the tumor, respectively. Relative tumor volume (RTV) was defined as TVt/TVi, the ratio of the volume on a given day (TVt) and the volume at the start of treatment (TVi). Relative tumor growth rate (T/C) was defined as RTVT/RTVC, the ratio of relative tumor volume of treatment group (RTVT) and relative tumor volume of control group (RTVC) on a given day. Inhibition of tumor growth in a Colo205 tumor xenograft model is shown below in Table 10 for a compound of Table 1.

BRAF V600E, sequence (P15056 whole entry V600E): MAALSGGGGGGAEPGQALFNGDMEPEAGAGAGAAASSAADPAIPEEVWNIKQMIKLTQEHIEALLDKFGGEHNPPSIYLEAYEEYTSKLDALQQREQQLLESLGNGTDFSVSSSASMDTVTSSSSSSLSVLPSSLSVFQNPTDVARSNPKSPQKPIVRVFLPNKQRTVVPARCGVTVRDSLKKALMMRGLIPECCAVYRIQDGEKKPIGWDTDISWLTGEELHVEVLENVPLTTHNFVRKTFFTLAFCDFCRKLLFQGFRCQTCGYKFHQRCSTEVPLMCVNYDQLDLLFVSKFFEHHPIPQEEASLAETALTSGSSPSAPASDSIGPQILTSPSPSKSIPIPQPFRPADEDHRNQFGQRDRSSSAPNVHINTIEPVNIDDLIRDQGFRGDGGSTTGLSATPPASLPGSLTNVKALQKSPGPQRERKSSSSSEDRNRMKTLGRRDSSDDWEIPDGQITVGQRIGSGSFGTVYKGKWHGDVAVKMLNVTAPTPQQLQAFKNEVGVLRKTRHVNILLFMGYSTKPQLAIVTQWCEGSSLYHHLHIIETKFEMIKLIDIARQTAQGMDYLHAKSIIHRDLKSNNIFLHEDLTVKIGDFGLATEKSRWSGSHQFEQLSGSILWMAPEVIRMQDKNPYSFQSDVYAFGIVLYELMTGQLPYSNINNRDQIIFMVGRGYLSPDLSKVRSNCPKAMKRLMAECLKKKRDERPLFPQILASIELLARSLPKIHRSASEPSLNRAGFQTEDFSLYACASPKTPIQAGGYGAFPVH
BRAF, sequence (P15056 whole entry): as the sequence (P15056 whole entry V600E) above, with E600V counted along it
KDR (VEGFR2), sequence (P35968 20-1356): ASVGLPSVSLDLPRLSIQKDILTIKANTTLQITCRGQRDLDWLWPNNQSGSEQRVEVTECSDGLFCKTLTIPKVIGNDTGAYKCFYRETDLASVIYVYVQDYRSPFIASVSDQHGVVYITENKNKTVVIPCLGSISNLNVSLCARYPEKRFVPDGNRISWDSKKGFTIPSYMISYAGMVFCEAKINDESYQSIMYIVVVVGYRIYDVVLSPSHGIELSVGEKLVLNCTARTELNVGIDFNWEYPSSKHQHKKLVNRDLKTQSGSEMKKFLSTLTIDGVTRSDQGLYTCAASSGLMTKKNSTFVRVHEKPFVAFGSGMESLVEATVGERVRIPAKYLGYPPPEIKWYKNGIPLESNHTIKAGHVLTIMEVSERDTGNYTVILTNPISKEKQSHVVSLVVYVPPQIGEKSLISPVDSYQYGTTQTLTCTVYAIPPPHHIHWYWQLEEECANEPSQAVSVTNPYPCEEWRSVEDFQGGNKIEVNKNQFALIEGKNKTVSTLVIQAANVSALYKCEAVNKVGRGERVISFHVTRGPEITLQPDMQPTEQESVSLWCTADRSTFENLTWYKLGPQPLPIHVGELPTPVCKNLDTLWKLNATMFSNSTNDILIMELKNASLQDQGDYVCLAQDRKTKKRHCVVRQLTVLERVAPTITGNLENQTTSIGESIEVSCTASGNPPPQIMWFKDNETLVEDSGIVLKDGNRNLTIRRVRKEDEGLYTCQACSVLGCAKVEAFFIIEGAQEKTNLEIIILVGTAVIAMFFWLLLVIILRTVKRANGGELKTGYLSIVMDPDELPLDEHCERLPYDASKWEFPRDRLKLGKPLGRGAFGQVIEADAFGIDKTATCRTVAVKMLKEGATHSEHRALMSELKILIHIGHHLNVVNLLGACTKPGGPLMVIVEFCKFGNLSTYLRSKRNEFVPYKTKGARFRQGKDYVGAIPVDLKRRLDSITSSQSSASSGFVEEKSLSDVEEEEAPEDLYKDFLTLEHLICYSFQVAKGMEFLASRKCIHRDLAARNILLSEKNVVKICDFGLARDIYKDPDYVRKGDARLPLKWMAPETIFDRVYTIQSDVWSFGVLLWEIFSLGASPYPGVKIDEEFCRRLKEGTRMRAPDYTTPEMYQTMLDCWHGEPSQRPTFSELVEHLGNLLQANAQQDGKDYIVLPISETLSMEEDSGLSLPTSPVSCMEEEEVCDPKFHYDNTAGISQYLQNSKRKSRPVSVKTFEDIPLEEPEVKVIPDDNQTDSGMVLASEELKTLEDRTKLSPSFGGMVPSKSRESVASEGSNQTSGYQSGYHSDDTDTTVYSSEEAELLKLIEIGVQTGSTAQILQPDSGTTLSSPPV

On to `O=C(Nc1cccc(Oc2ccc3nccnc3c2)c1)Nc1ccc(Cl)c(C(F)(F)F)c1` [Compound C001, 1-(4-chloro-3-(trifluoromethyl)phenyl)-3-(3-(quinoxalin-6-yloxy)phenyl)urea], for which the IC50 (commonly the concentration that gives 50% inhibition) against BRAF V600E is > 100 nM; with Colo205 cells, 1000 to 5000 nM; in the assay on A375 cells, 1000 to 5000 nM; against KDR (VEGFR2), < 100 nM; with A549 cells, < 2000 nM. Besides, the inhibition at 1 µM at BRAF V600E and on KDR (VEGFR2) was > 89% throughout.

In the case of `O=C(Nc1ccc(Oc2ccc3ncc(N4CCNCC4)nc3c2)cc1)Nc1ccc(Cl)c(C(F)(F)F)c1` [Compound C089, 1-(4-chloro-3-(trifluoromethyl)phenyl)-3-(4-((3-(piperazin-1-yl)quinoxalin-6-yl)oxy)phenyl)urea], the figures for the inhibition at 1 µM on BRAF, on BRAF V600E and at KDR (VEGFR2) were < 70%, > 89% and > 89%, respectively. The 50% inhibitory concentration (IC50) in the assay with Colo205 cells is < 1000 nM; with A375 cells it was < 1000 nM; in the assay on A549 cells, < 2000 nM. Moreover, the “T/C (relative tumor growth rate)” value with Colo205 tumor xenograft was found to be 79%. Moreover, the “Tumor Volume Post-treatment” value in the assay on Colo205 tumor xenograft is recorded as 768.94 mm^3. The “Tumor Volume Pre-treatment” value in the assay with Colo205 tumor xenograft is listed as 233.30 mm^3.

Take `O=C(Nc1ccc(F)cc1)Nc1ccc(Oc2ccc3ncc(N4CCOCC4)nc3c2)cc1` [Compound C082, 1-(4-fluorophenyl)-3-(4-((3-morpholinoquinoxalin-6-yl)oxy)phenyl)urea]: the figures for the inhibition at 1 µM against BRAF, at BRAF V600E and at KDR (VEGFR2) were < 70%, > 89% and 70 to 89%, respectively. In addition, the IC50 in the assay with Colo205 cells is > 5000 nM.

Consider `O=C(Nc1ccc(Cl)cc1)Nc1ccc(Oc2ccc3ncc(N4CCNCC4)nc3c2)cc1` [Compound C092, 1-(4-chlorophenyl)-3-(4-((3-(piperazin-1-yl)quinoxalin-6-yl)oxy)phenyl)urea], for which the inhibition (in general, the share of the control response that was lost under treatment) at 1 µM is > 89% against BRAF, > 89% at BRAF V600E and 70 to 89% on KDR (VEGFR2). Moreover, the IC50 was > 5000 nM in the assay on A375 cells and 2000 to 5000 nM with A549 cells.

For `O=C(Nc1ccc(Oc2ccc3ncc(N4CCNCC4)nc3c2)cc1)Nc1ccc(F)c(C(F)(F)F)c1` [Compound C087, 1-(4-fluoro-3-(trifluoromethyl)phenyl)-3-(4-((3-(piperazin-1-yl)quinoxalin-6-yl)oxy)phenyl)urea], the inhibition at 1 µM is 70 to 89% against BRAF, > 89% at BRAF V600E and > 89% at KDR (VEGFR2). Moreover, the figures for the IC50 in the assay with Colo205 cells, with A375 cells and with A549 cells were 1000 to 5000 nM, 1000 to 5000 nM and < 2000 nM, respectively. In addition, in the assay on Colo205 tumor xenograft, the “T/C (relative tumor growth rate)” value is listed as 81%. The “Tumor Volume Post-treatment” value with Colo205 tumor xenograft stood at 796.35 mm^3. Besides, the “Tumor Volume Pre-treatment” value in the assay with Colo205 tumor xenograft is reported as 237.13 mm^3.

`O=C(Nc1cccc(Oc2ccc3nccnc3c2)c1)c1cccc(C(F)(F)F)c1` [Compound C005, N-(3-(quinoxalin-6-yloxy)phenyl)-3-(trifluoromethyl)benzamide]: the inhibition at 1 µM against BRAF, at BRAF V600E and at KDR (VEGFR2) was 70 to 89% in each case. In addition, the IC50 was < 100 nM on BRAF V600E, > 5000 nM with A375 cells, > 100 nM at KDR (VEGFR2) and > 5000 nM with A549 cells.

(Values after patent publication US10590106B2, “Certain chemical entities, compositions, and methods” (NeuPharma, Inc., priority 2012, dated 2020).)
